Counter-ions that a name gives are not always drawn. Like-named read-outs stand apart in the source and are kept apart here.
Test system: MLKL phosphorylation in HT29-L23 human colorectal adenocarcinoma cells
Assay: MLKL Phosphorylation High-Content Assay
Assay type: cell-based
Conditions: 6 h, necroptosis induced with TNFα, SMAC mimetic and Z-VAD, read-out: pMLKL (IC50)
Method: MLKL Phosphorylation High-Content Assay
HT29-L23 human colorectal adenocarcinoma cells were maintained in RPMI 1640 medium containing 10% heat-inactivated FBS, 1% Penicillin-Streptomycin and 10 mM HEPES. Cells were seeded at 2,000 cells/well in 384 well tissue culture-treated microplates (Greiner #781090-3B) and incubated at 37° C. (5% CO2/95% O2) for 2 d. […] (5% CO2/95% O2). Necroptopsis was induced using a mixture of human TNFα (35 ng/mL) (Peprotech #300-01A), SMAC mimetic (from US 2015/0322111 A1) (700 nM) and Z-VAD ([…]) (BD pharmingen #51-6936). Following 6 h incubation at 37° C. (5% CO2/95% O2), the cells were fixed with 4% formaldehyde (ACROS 11969-0010) for 15 min at rt, then permeabilized with phosphate buffered saline (PBS) containing 0.2% Triton-X-100 for 10 min. MLKL phosphorylation was detected using anti-MLKL (phospho S358) antibody (Abeam #ab 187091) (1:1000 dilution in Blocking Buffer [PBS supplemented with 0.1% BSA]) with ON incubation at 4° C. After washing three times in PBS, goat anti-rabbit Alexa-488 (1:1000 dilution) (Life Technologies, A11008) and Hoechst 33342 (Life Technologies, H3570) (1:2000 dilution) in Blocking Buffer were added for 1 h at rt.
Following another three cycles of washes in PBS, the microplates were sealed, and cellular images were acquired in the Cellomics ArrayScan VTI high-content imager equipped with an X1 camera. Fluorescent images were taken using a 10× objective and the 386-23 BGRFRN_BGRFRN and 485-20 BGRFRN_BGRFRN filter sets, for nuclei and MLKL phosphorylation, respectively. The image sets were analyzed using the Compartmental Analysis Bioapplication software (Cellomics). The level of MLKL phosphorylation was quantified as MEAN_CircRingAvglntenRatio. The maximal inhibitory response was defined by the activity induced by Neels (CAS #: 852391-15-2, 6.25 μM). […] The data were fitted using the 4-parameter logistic equation to calculate the IC50 and Ymax values.

SMILES	IC50 (Homo sapiens)	IC50
CNC(=O)c1n[nH]c2cc(-c3cnc(OC)c(C(=O)N[C@H](C)CC(=O)OC(C)(C)C)c3)ccc12 [Example 141, tert-butyl (3R)-3-({2-methoxy-5-[3-(methylcarbamoyl)-1H-indazol-6-yl]pyridin-3-yl}-formamido)butanoate]	41 nM	–
[2H]C([2H])([2H])NC(=O)c1n[nH]c2cc(-c3cnc(OC([2H])([2H])[2H])c(C(=O)N[C@@H](C)c4cc(OC(F)(F)F)ccc4F)c3)ccc12 [Example 5, (S)-6-(5-((1-(2-fluoro-5-(trifluoromethoxy)phenyl)ethyl)carbamoyl)-6-(methoxy-d3)pyridin-3-yl)-N-(methyl-d3)-1H-indazole-3-carboxamide]	9 nM	–
CNC(=O)c1n[nH]c2cc(-c3cnc(OC)c(C(=O)NCCCOC4CCCCO4)c3)ccc12 (stereo not shown) [Example 61, 6-(6-methoxy-5-{[3-(oxan-2-yloxy)propyl]carbamoyl}-pyridin-3-yl)-N-methyl-1H-indazole-3-carboxamide]	28 nM	–
CNC(=O)c1n[nH]c2cc(-c3cnc(OC)c(C(=O)NCc4ccccc4OC)c3)ccc12 [Example 58, 6-(6-methoxy-5-{[(2-methoxy-phenyl)methyl]carbamoyl}-pyridin-3-yl)-N-methyl-1H-indazole-3-carboxamide]	5.6 nM	–
[2H]C([2H])([2H])NC(=O)c1n[nH]c2cc(-c3cnc(OC([2H])([2H])[2H])c(C(=O)N[C@H](C)c4cc(OC(F)(F)F)ccc4F)c3)ccc12 [Example 218, 6-(5-{[(1R)-1-[2-fluoro-5-(trifluoro-methoxy)phenyl]ethyl]carbamoyl}-6-(deutero)methoxypyridin-3-yl)-N-(deutero)methyl-1H-indazole-3-carboxamide]	32 nM	–
CNC(=O)c1n[nH]c2cc(-c3cnc(OC)c(C(=O)NCCCC(=O)OC(C)(C)C)c3)ccc12 [Example 135, tert-butyl 4-({2-methoxy-5-[3-(methylcarbamoyl)-1H-indazol-6-yl]pyridin-3-yl}formamido)-butanoate]	200 nM	–
COc1ncc(-c2ccc3c(C(=O)NCC(F)(F)F)n[nH]c3c2)cc1C(=O)NCc1ccccc1OC(F)(F)F [Example 178]	120 nM	–
[2H]C([2H])([2H])NC(=O)c1n[nH]c2cc(-c3cnc(OC([2H])([2H])[2H])c(C(=O)N[C@@H](C)c4cc(C(F)(F)F)ccc4F)c3)ccc12 [Example 213, 6-(5-{[(1S)-1-[2-fluoro-5-(trifluoro-methyl)phenyl]ethyl]carbamoyl}-6-(deutero)methoxypyridin-3-yl)-N-(deutero)methyl-1H-indazole-3-carboxamide]	21 nM	–
[2H]C([2H])([2H])Oc1ncc(-c2ccc3c(C(=O)NC)n[nH]c3c2)cc1C(=O)N[C@@H](C)c1cccc(OC(F)(F)F)c1 [Example 25]	190 nM	–
CNC(=O)c1n[nH]c2cc(-c3cnc(OC)c(C(=O)NCc4cc(F)cc(F)c4OC)c3)ccc12 [Example 89, 6-(5-{[(3,5-difluoro-2-methoxy-phenyl)methyl]carbamoyl}-6-methoxy-pyridin-3-yl)-N-methyl-1H-indazole-3-carbox-amide]	–	85 nM
[2H]C([2H])([2H])Oc1ncc(-c2ccc3c(C(=O)NC)n[nH]c3c2)cc1C(=O)N[C@@H](c1cc(OC(F)(F)F)ccc1F)C([2H])([2H])[2H] [Example 9, (R)-6-(5-((1-(2-fluoro-5-(trifluoromethoxy)phenyl)ethyl-2,2,2-d3)carbamoyl)-6-(methoxy-d3)pyridin-3-yl)-N-methyl-1H-indazole-3-carboxamide, TFA]	22 nM	–
CNC(=O)c1n[nH]c2cc(-c3cnc(OC)c(C(=O)N[C@@H](C)c4cc(OC(F)(F)F)ccc4F)c3)ccc12 [Example 222]	–	14 nM
CNC(=O)c1n[nH]c2cc(-c3cnc(OC)c(C(=O)NC(C)c4cccc(OC(F)(F)F)c4)c3)cc(F)c12 (stereo not shown) [Example 147, 4-fluoro-6-[6-methoxy-5-({1-[3-(trifluoromethoxy)-phenyl]ethyl}carbamoyl)-pyridin-3-yl]-N-methyl-1H-indazole-3-carboxamide]	110 nM	–

— US12172975B2, “1H-indazole carboxamides as receptor-interacting protein kinase 1 inhibitors (RIPK1)” (BRISTOL-MYERS SQUIBB COMPANY, priority 2018, dated 2024)
